In patent US11453663B2, “Substituted propanamides as inhibitors of nucleases” (MASARYKOVA UNIVERZITA, priority 2018, dated 2022):

Columns and labels:
DR-GFP U2OS cells = test: HR assay (GFP fluorescence by flow cytometry after I-SceI transfection); format: cell-based; settings: Homo sapiens, 25 μM inhibitor, 72 hours after transfection
Procedure: DR-GFP U2OS cells (Methods in Molecular Biology 2012, 920, 379.) were transfected with 2.5 μg of I-SceI-expressing pCAGGS vector and treated with the inhibitors at 25 μM concentration. 72 hours after the transfection, the cells were trypsinized and resuspended in 3% BSA in PBS. GFP fluorescence detection was carried out using a BD FACSVerse flow cytometer and data analyzed with FlowJo software.

MRE11 = MRE11 (Homo sapiens (Human), UniProt P49959); test: HTS nuclease assay (fluorescence-quenched 5′ overhang DNA substrate cleavage); format: biochemical; settings: 18 nM MRE11, 40 nM DNA substrate, analysis at t=4 h
Sequence of MRE11 (P49959 whole entry): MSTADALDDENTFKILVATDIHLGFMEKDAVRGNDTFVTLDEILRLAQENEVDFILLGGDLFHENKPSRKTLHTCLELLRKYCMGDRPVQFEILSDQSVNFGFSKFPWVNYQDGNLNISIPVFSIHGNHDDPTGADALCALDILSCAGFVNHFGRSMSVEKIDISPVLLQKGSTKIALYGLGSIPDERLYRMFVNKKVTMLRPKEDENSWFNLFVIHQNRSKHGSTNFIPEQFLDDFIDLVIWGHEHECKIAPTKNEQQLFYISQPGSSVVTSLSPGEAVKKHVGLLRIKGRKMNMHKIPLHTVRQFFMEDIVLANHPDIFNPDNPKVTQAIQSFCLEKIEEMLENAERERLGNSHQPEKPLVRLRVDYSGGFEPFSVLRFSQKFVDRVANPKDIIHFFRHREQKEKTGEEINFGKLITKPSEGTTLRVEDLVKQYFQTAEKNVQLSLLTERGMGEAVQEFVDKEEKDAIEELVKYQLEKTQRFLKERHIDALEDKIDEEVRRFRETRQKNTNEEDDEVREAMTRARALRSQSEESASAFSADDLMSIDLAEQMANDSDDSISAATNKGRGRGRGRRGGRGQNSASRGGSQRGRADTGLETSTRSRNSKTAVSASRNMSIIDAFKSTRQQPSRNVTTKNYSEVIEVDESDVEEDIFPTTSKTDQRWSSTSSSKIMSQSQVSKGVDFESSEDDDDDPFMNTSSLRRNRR
Procedure: DNA Substrate Preparation
The DNA substrate is prepared by mixing the oligonucleotides listed below in a 1:1 ratio to reach a final concentration of 6 μM in a buffer containing 50 mM Tris pH 7.5, 100 mM NaCl and 8 mM MgCl2.
The mixture is heat for 3 min at 65° C. and let to cool down slowly to RT. Then it is stored at −20° C.
This substrate is a 5′ overhang, which is a preferred substrate of MRE11. […] The fluorescence increases upon substrate cleavage by MRE11, when separation of the two labels occur.
The conditions of the assay are as follows:
Total reaction volume: 5 μL
DNA substrate concentration in the reaction: 40 nM
Inhibitor concentration range tested: 7 nM-50 μM
Each plate contains a series of high and low signal control wells, where no compound is added:
High signal: MRE11+DNA substrate
Low signal: DNA substrate only
These are used during data evaluation.
Two Extra Assay Controls:
1) To check whether unwinding of DNA by the compounds alone occurs.
The DNA substrate [CY5+BBQ(650)] is mixed with the compounds with no protein present.
The CY5 single stranded oligo is mixed with the compounds with no protein present.
The layout of the plates is created by the in-house software (CZ-Openscreen Prague) and this information is transferred to the robotic HTS station.
The reaction is started by the addition of DNA and the reaction time is counted from that moment, including a 15 min delay. Ten timepoints are measured:
The assay data analysis was performed at t=4 h. This corresponds to the time when the reaction is close to its maximum.
The data analysis was performed using the in-house software (CZ-Openscreen Prague) to obtain IC50 for each compound.

| Compound | inhibition at 25 µM (DR-GFP U2OS cells) [%] | IC50 (MRE11) [µM] |
| --- | --- | --- |
| CC(=O)Nc1ccc(CC(C#N)C(=O)Nc2nc(-c3ccccc3)cs2)cc1 (stereo not drawn) [Preparative Example 128, 3-(4-acetamidophenyl)-2-cyano-N-(4-phenylthiazol-2-yl)propanamide] | 50 to 75 | – |
| N#Cc1ccc(-c2csc(NC(=O)C(C#N)Cc3ccc(O)c(O)c3)n2)cc1 (stereo not drawn) [Preparative Example 131, 2-cyano-N-(4-(4-cyanophenyl)thiazol-2-yl)-3-(3,4-dihydroxyphenyl)propanamide] | 50 to 75 | 2 to 10 |
| N#CC(Cc1ccc(O)c(O)c1)C(=O)Nc1nc(-c2ccc(C(F)(F)F)cc2)cs1 (stereo not drawn) [Preparative Example 132, 2-cyano-3-(3,4-dihydroxyphenyl)-N-(4-(4-(trifluoromethyl)phenyl)thiazol-2-yl)propanamide] | > 75 | 2 to 10 |
| Cc1ccc(-c2csc(NC(=O)C(C#N)Cc3ccc(O)c(O)c3)n2)cc1 (stereo not drawn) [Preparative Example 133, 2-cyano-3-(3,4-dihydroxyphenyl)-N-(4-(p-tolyl)thiazol-2-yl)propanamide] | < 50 | 2 to 10 |
| N#CC(Cc1cc(Cl)c(O)c(Cl)c1)C(=O)Nc1nc(-c2ccccc2)c(-c2ccccc2)s1 (stereo not drawn) [Preparative Example 134, 2-cyano-3-(3,5-dichloro-4-hydroxyphenyl)-N-(4,5-diphenylthiazol-2-yl)propanamide] | < 50 | 2 to 10 |
| Cc1ccc(-c2sc(NC(=O)C(C#N)Cc3ccc(O)c(O)c3)nc2-c2ccccc2)cc1 (stereo not drawn) [Preparative Example 135, 2-cyano-3-(3,4-dihydroxyphenyl)-N-(4-phenyl-5-(p-tolyl)thiazol-2-yl)propanamide] | > 75 | < 2 |
| N#CC(Cc1cc(Cl)c(O)c(Cl)c1)C(=O)Nc1nc(-c2ccc(OC(F)(F)F)cc2)cs1 (stereo not drawn) [Preparative Example 137, 2-cyano-3-(3,5-dichloro-4-hydroxyphenyl)-N-(4-(4-(trifluoromethoxy)phenyl)thiazol-2-yl)propanamide] | < 50 | 2 to 10 |
| N#CC(Cc1ccc(O)c(O)c1)C(=O)Nc1nc(-c2cccc(-c3ccccc3)c2)cs1 (stereo not drawn) [Preparative Example 138, N-(4-([1,1′-biphenyl]-3-yl)thiazol-2-yl)-2-cyano-3-(3,4-dihydroxyphenyl)propanamide] | > 75 | 2 to 10 |
| N#CC(Cc1ccc2nc[nH]c2c1)C(=O)Nc1nc(-c2ccccc2)cs1 (stereo not drawn) [Preparative Example 142, 3-(1H-benzo[d]imidazol-6-yl)-2-cyano-N-(4-phenylthiazol-2-yl)propanamide] | < 50 | 10 to 90 |
| N#CC(Cc1cc(Cl)c(O)c(Cl)c1)C(=O)Nc1nc(-c2ccc3ccccc3c2)cs1 (stereo not drawn) [Preparative Example 143, 2-cyano-3-(3,5-dichloro-4-hydroxyphenyl)-N-(4-(naphthalen-2-yl)thiazol-2-yl)propanamide] | < 50 | 2 to 10 |
| N#CC(Cc1ccc(O)c(O)c1)C(=O)Nc1nc(-c2ccsc2)cs1 (stereo not drawn) [Preparative Example 145, 2-cyano-3-(3,4-dihydroxyphenyl)-N-(4-(thiophen-3-yl)thiazol-2-yl)propanamide] | < 50 | 2 to 10 |
| N#CC(Cc1ccc(O)c(O)c1)C(=O)Nc1nc(-c2ccccc2)c(C2CCCCC2)s1 (stereo not drawn) [Preparative Example 146, 2-cyano-N-(5-cyclohexyl-4-phenylthiazol-2-yl)-3-(3,4-dihydroxyphenyl)propanamide] | > 75 | 2 to 10 |
| Cc1cc(CC(C#N)C(=O)Nc2nc(-c3ccccc3)cs2)cc(C)c1O (stereo not drawn) [Preparative Example 147, 2-cyano-3-(4-hydroxy-3,5-dimethylphenyl)-N-(4-phenylthiazol-2-yl)propanamide] | 50 to 75 | 10 to 90 |
| Cc1cc(CC(C#N)C(=O)Nc2nc(-c3ccc(C(C)(C)C)cc3)cs2)cc(C)c1O (stereo not drawn) [Preparative Example 149, N-(4-(4-(tert-butyl)phenyl)thiazol-2-yl)-2-cyano-3-(4-hydroxy-3,5-dimethylphenyl)propanamide] | > 75 | 10 to 90 |
| CC(C)(C)c1ccc(-c2csc(NC(=O)C(C#N)Cc3cc(C(C)(C)C)c(O)c(C(C)(C)C)c3)n2)cc1 (stereo not drawn) [Preparative Example 150, N-(4-(4-(tert-butyl)phenyl)thiazol-2-yl)-2-cyano-3-(3,5-di-tert-butyl-4-hydroxyphenyl)propanamide] | > 75 | – |
| N#Cc1cc(CC(C#N)C(=O)Nc2nc(-c3ccccc3)cs2)ccc1O (stereo not drawn) [Preparative Example 151, 2-cyano-3-(3-cyano-4-hydroxyphenyl)-N-(4-phenylthiazol-2-yl)propanamide] | < 50 | 10 to 90 |
| Cc1cc(-c2csc(NC(=O)C(C#N)Cc3ccc(O)c(O)c3)n2)cs1 (stereo not drawn) [Preparative Example 152, 2-cyano-3-(3,4-dihydroxyphenyl)-N-(4-(5-methylthiophen-3-yl)thiazol-2-yl)propanamide] | < 50 | 2 to 10 |
| N#CC(Cc1ccc(O)c(O)c1)C(=O)Nc1nc(-c2ccc3c(c2)CCCC3)cs1 (stereo not drawn) [Preparative Example 153, 2-cyano-3-(3,4-dihydroxyphenyl)-N-(4-(5,6,7,8-tetrahydronaphthalen-2-yl)thiazol-2-yl)propanamide] | > 75 | 2 to 10 |
| N#CC(Cc1ccc(O)c(O)c1)C(=O)Nc1nc(-c2ccc(C3CCCCC3)cc2)cs1 (stereo not drawn) [Preparative Example 154, 2-cyano-N-(4-(4-cyclohexylphenyl)thiazol-2-yl)-3-(3,4-dihydroxyphenyl)propanamide] | > 75 | 2 to 10 |
| Cc1cc(CC(C#N)C(=O)Nc2nc(-c3ccccc3)cs2)cc(Cl)c1O (stereo not drawn) [Preparative Example 155, 3-(3-chloro-4-hydroxy-5-methylphenyl)-2-cyano-N-(4-phenylthiazol-2-yl)propanamide] | < 50 | 10 to 90 |
| N#CC(Cc1cc(F)c(O)c(Cl)c1)C(=O)Nc1nc(-c2ccccc2)cs1 (stereo not drawn) [Preparative Example 156, 3-(3-chloro-5-fluoro-4-hydroxyphenyl)-2-cyano-N-(4-phenylthiazol-2-yl)propanamide] | < 50 | 2 to 10 |
| Cc1cccc(-c2csc(NC(=O)C(C#N)Cc3ccc(O)c(O)c3)n2)n1 (stereo not drawn) [Preparative Example 158, 2-cyano-3-(3,4-dihydroxyphenyl)-N-(4-(6-methylpyridin-2-yl)thiazol-2-yl)propanamide] | > 75 | 2 to 10 |
| N#CC(Cc1ccc(O)c(O)c1)C(=O)Nc1nc(-c2ccccc2C(F)(F)F)cs1 (stereo not drawn) [Preparative Example 159, 2-cyano-3-(3,4-dihydroxyphenyl)-N-(4-(2-(trifluoromethyl)phenyl)thiazol-2-yl)propanamide] | < 50 | 2 to 10 |
| N#CC(Cc1ccc(O)c(O)c1)C(=O)Nc1nc(-c2ccc(Cl)c(Cl)c2)cs1 (stereo not drawn) [Preparative Example 160, 2-cyano-N-(4-(3,4-dichlorophenyl)thiazol-2-yl)-3-(3,4-dihydroxyphenyl)propanamide] | 50 to 75 | < 2 |
| Cc1ccccc1-c1csc(NC(=O)C(C#N)Cc2ccc(O)c(O)c2)n1 (stereo not drawn) [Preparative Example 161, 2-cyano-3-(3,4-dihydroxyphenyl)-N-(4-(o-tolyl)thiazol-2-yl)propanamide] | 50 to 75 | 2 to 10 |
| N#CC(Cc1ccc(O)c(O)c1)C(=O)Nc1nc(-c2cccc(Cl)c2)cs1 (stereo not drawn) [Preparative Example 162, N-(4-(3-chlorophenyl)thiazol-2-yl)-2-cyano-3-(3,4-dihydroxyphenyl)propanamide] | 50 to 75 | 2 to 10 |
| N#CC(Cc1cc(C(F)(F)F)cc(C(F)(F)F)c1)C(=O)Nc1nc(-c2ccccc2)cs1 (stereo not drawn) [Preparative Example 163, 3-(3,5-bis(trifluoromethyl)phenyl)-2-cyano-N-(4-phenylthiazol-2-yl)propanamide] | > 75 | – |
| Cc1ccnc(-c2csc(NC(=O)C(C#N)Cc3ccc(O)c(O)c3)n2)c1 (stereo not drawn) [Preparative Example 164, 2-cyano-3-(3,4-dihydroxyphenyl)-N-(4-(4-methylpyridin-2-yl)thiazol-2-yl)propanamide] | > 75 | 2 to 10 |
| CC(c1ccc(O)c(O)c1)C(C#N)C(=O)Nc1nc(-c2ccccc2)cs1 (stereo not drawn) [Preparative Example 177, 2-cyano-3-(3,4-dihydroxyphenyl)-N-(4-phenylthiazol-2-yl)butanamide] | 50 to 75 | – |
